Read-outs that look alike come from different tables or passages of the source.
Biological target: T1, Sigma-1 receptor (Sig-1R) (Homo sapiens, UniProt Q99720)
T1 construct: gene SIGMAR1; human Sig-1R-GFP stably expressed in Neuro-2A cell membranes
Test: [3H](+)-pentazocine competition radioligand binding, membranes

T1 sequence (Q99720 whole entry): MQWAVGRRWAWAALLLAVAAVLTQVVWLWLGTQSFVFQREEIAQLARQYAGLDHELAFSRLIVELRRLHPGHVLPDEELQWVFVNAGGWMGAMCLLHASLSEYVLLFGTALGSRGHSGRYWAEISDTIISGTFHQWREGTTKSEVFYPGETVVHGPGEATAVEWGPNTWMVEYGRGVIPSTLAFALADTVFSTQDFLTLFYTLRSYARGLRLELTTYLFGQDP

Q: `C[N+](C)(C)CCO` [Choline] was tested. Which Ki did it give?
A: Its Ki is 525 µM.

Q: `CC(=O)OCC[N+](C)(C)C` [acetylcholine] was tested. Which Ki (read-out: Ki) did it give?
A: The Ki was about 12000 µM.

Q: With `C[N+](C)(C)CC(=O)O` [betaine] as the compound, how does the Ki (read-out: Ki) read?
A: The Ki was 1320 µM.
